Measured values published in US20160287534A1, “METHODS FOR REVERSING FIBROSIS” (The University of Connecticut, priority 2015, published 2016).

Tests used:
primary HSCs = assay: Activation of primary mouse HSCs on untreated dishes (Example 1): α-SMA qRT-PCR, immunostaining, in-cell Western; type: cell-based, C57BL/6J mice
Description: Primary HSCs were isolated from C57BL/6J mouse liver using the collagenase/pronase digestion method (see Weiskirchen et al. Fibrosis Research, 2005, vol. 117, pp. 99-113). In brief, mice were anesthetized with ketamine/xylazine (120/6 mpk) (Butler Schein, Dublin, Ohio). Abdominal and chest cavities were opened to expose the portal vein and to locate the heart and vena cava, respectively. Subsequently, a 20 G×1″ I.V. catheter (Terumo, Somerset, N.J.) was inserted into the vena cava through the right atrium and the portal vein was cut. A mouse liver was perfused at 5 mL/min with 25 mL SC-1 solution consisting of the following (per L); 8000 mg NaCl, 400 mg KCl, 88.17 mg NaH2PO4 2H2O, 120.45 mg Na2HPO4 12H2O, 2380 mg 4-(2-hydroxyethyl)-1-piperazineethanesulfonic acid (HEPES), 350 mg NaHCO3, 190 mg ethylene glycol tetraacetic acid, and 900 mg glucose, pH 7.2-7.3. The liver was, then, digested with 300 μg/mL pronase E (Roche, Mannheim, Germany) in SC-2 solution consisting of 8000 mg NaCl, 400 mg KCl, 88.17 mg NaH2PO4 2H2O, 120.45 mg Na2HPO4 12H2O, 2380 mg HEPES, 350 mg NaHCO3, and 560 mg CaCl2 2H2O, per L, pH 7.2-7.3, followed by 600 μg/mL collagenase D (Roche, Mannheim, Germany) in SC-2 solution at 5 mL/min for 5 min each. The digested liver was harvested and filtered through a 100 μm cell strainer (Fisher Scientific, Pittsburgh, Pa.). The hepatic cells were then centrifuged at 60×g for 1 min to separate non-parenchymal cells from hepatocytes. The supernatant containing non-parenchymal cells was separated based on density using a top layer of Gey's Balanced Salt Solution (GBSS), a middle layer of 10% Nycodenz (Axis-Shield, Scotland) and a bottom layer of 14.5% Nycodenz diluted in GBSS. The tube was centrifuged at 2100×g or 20 min and the primary HSCs were collected from the interface between the GBSS and 10% Nycodenz.
LX-2 cells were kindly provided by Dr. Scott Friedman at the Icahn School of Medicine at Mount Sinai (New York, N.Y.). […]

Smad3 = assay: Western blot of Smad3 phosphorylation and nuclear translocation in LX-2 cells; type: cell-based
Description: Whole cell lysates were prepared to conduct Western blot as we previously described (Id.) using antibodies against α-SMA (Sigma, St. Louis, Mo.), Smad3 (Millipore, Billerica, Mass.), and phospho-Smad3 (Cell Signaling, Danvers, Mass.). β-Tubulin (Santa Cruz Biotechnology, Santa Cruz, Calif.) or β-actin (Sigma, St. Louis, Mo.) was used as a loading control. For Western blot of nuclear and cytoplasmic cell fractions, the fractions were prepared using a nuclear extraction kit (Cayman, Ann Arbor, Mich.) as previously described (see Ku et al. Biochim. Biophys. Acta Gen. Subj. 2013, vol. 1830, pp. 2981-2988). Glyceraldehyde 3-phosphate dehydrogenase (GAPDH) (Santa Cruz Biotechnology, Santa Cruz, Calif.) and lamin B (Santa Cruz Biotechnology) were used as a loading control for cytoplasmic and nuclear fractions, respectively. Blots were developed using Westpico horseradish peroxidase chemiluminescence (Pierce, Rockford, Ill.) and images were analyzed using a Chemidoc XRS+system (Bio-Rad) and Image Lab software (Bio-Rad).

mouse primary HSCs = assay: ROS measurement in mouse primary HSCs; type: cell-based; settings: ASTX treatment for 6 d during activation (FIG. 8A)
Description: Mouse primary qHSCs were seeded on an uncoated black 24-well μ-Plate (Ibidi, Verona, Wis.). At day 6 of activation, cellular ROS levels were measured using dichlorofluorescin (Sigma-Aldrich, St. Louis, Mo.) as described (Id.). The cells were then fixed with 4% formaldehyde for 10 min, and incubated with 0.1% CellTag 700 stain (Li—COR, Lincoln, Nebr.), a fluorescent stain, for cell number normalization, for 1 h. Fluorescent signals were obtained by an Odyssey® CLx Infrared Imaging System (Li—COR) and a Li—COR Image Studio software. Data were expressed as relative fluorescent intensity divided by total cell stain signal.

LX-2 cells = assay: qRT-PCR of TGFβ1-induced fibrogenic and TGFβ1 signaling genes in LX-2 cells; type: cell-based
Description: LX-2 cells were kindly provided by Dr. Scott Friedman at the Icahn School of Medicine at Mount Sinai (New York, N.Y.). Cells were maintained in low-glucose DMEM containing 2% FBS, 4 mM 1-glutamine, 100 U/mL penicillin and 100 μg/mL streptomycin in a 37° C. humidified cell culture chamber providing 5% CO2. LX-2 cells were incubated with varying concentrations of ASTX for 12 or 24 h, and subsequently activated by 2 ng/mL of TGFβ1 (Peprotech, Rocky Hill, N.J.) for 1 to 24 h. Primary mouse HSCs were plated on untreated petri dishes (BD Falcon, Franklin Lakes, N.J.) and maintained in low-glucose DMEM supplemented with 10% FBS, 4 mM L-glutamine, 100 U/mL penicillin and 100 μg/mL streptomycin in a 37° C. humidified cell culture chamber under 5% CO2. ASTX (25 μM) was added at day 2 or day 4 after plating until day 6 with daily media change. All cell culture supplies were purchased from HyClone (Thermo Scientific, Logan, Utah).
Total RNA extraction, cDNA synthesis, and qRT-PCR were conducted using a Bio-Rad CFX96 Real-Time system (Bio-Rad, Hercules, Calif.) as previously described (see Park et al. Nutr. Res. 2008, vol. 28, pp. 83-91; Rasmussen et al. J. Nutr. 2008, vol. 138, pp. 476-481). Gene sequences were obtained from the GenBank database and primers were designed using Beacon Designer (Premier Biosoft, Palo Alto, Calif.). Primer sequences are available (see supplemental table of Yang et al. Biochimica et Biophysica Acta 2015, vol. 1850, pp. 178-185).

In the case of `CC1=C(/C=C/C(C)=C/C=C/C(C)=C/C=C/C=C(C)/C=C/C=C(C)/C=C/C2=C(C)C(=O)C(O)CC2(C)C)C(C)(C)CC(O)C1=O` (centres unmarked) [ASTX, astaxanthin], the “α-SMA mRNA levels” value (primary HSCs; 25 μM ASTX added for 2 days during HSC activation (FIG. 6A)) is reported as “significantly reduced”, the “decrease of α-SMA protein (in-cell Western)” value (primary HSCs; ASTX treatment at days 0, 2 and 4 until day 6, vs control without ASTX (FIG. 6C)) is reported as 30-40% and the “α-SMA protein levels (immunostaining)” value (primary HSCs; day 4 of incubation, ASTX for 2 days (FIG. 6B)) is reported as “markedly decreased”. For the same compound, the “TGFβ1-induced phosphorylation of Smad3” value (Smad3; 25 μM ASTX (FIG. 5A)) was “significantly inhibited”, the “nuclear translocation of Smad3” value (Smad3; 25 μM ASTX (FIG. 5B)) was “reduced” and the “cellular ROS levels” value (mouse primary HSCs) was “significantly lowered”. The “induction of α-SMA mRNA by TGFβ1” value (LX-2 cells; 25 μM ASTX, 3 and 12 h of TGFβ1 stimulation (FIG. 2A)) was “significantly inhibited”, the “induction of Col1A1 mRNA by TGFβ1” value (LX-2 cells; 25 μM ASTX, 12 h of TGFβ1 stimulation (FIG. 2A)) was “significantly inhibited” and the “induction of the fibrogenic genes by TGFβ1” value (LX-2 cells; 10 and 25 μM ASTX, TGFβ1 24 h (FIG. 2B)) was “significantly inhibited”. For the same compound, the “TGFβ-induced increases in mRNA levels of TβRI and TβRII” value (LX-2 cells; LX-2 cells, 25 μM ASTX (FIG. 5C)) was “almost completely abolished”, the “TGFβ1-induced expression of α-SMA and Col1A1 mRNA” value (LX-2 cells; LX-2 cells, 25 μM ASTX, 2 ng/mL TGFβ1 24 h (FIG. 3A)) was “significantly attenuated” and the “TGFβ1-induced increase in mRNA levels of Smad2, Smad3 and Smad7” value (LX-2 cells; LX-2 cells, 25 μM ASTX, TGFβ1 12 h (FIG. 5C)) was “abolished or significantly attenuated”. The “basal expression levels of α-SMA and Col1A1 mRNA” value (LX-2 cells; LX-2 cells, 25 μM ASTX, no TGFβ1 (FIG. 3A)) was “did not alter” and the “TGFβ1-induced NOX4 mRNA levels” value (LX-2 cells; LX-2 cells, P=0.074) was “decreased TGFβ1-induced NOX4 mRNA levels although it did not reach statistical significance”.
